This note sets out measurements from US7579432B2, “Cyclic peptides as G-protein-coupled receptor antagonists” (Promics Pty Limited, priority 2001, dated 2009).

Molecules are shown by their SMILES.

The data set is described as follows: Plasma levels after topical dermal administration. The data set is classed as in vivo, rat. Conditions: dermal application, 50 mg/kg, DMSO/distilled H2O or PG/H2O. As for the experimental part:
Female and male Wistar rats (200-250 g) were anaesthetized with 1 mL of zoletil (50 mg/kg) and xylazine (10 mg/kg; Lyppard, Australia), which was injected intraperitoneally. An area of 5×10 cm was shaved and marked on the lower abdominal area of the rat, on to which the dose of drug was applied. A stock solution containing 10 mg/ml of C5a antagonist was dissolved in solvents propylene glycol or dimethylsulfoxide at varying concentrations with water and smeared evenly on the shaved abdominal area of the rat with a spatula. A heating pad was used to maintain the body temperature of the rats and blood samoles were taken at 15 min intervals for the first hour, and after that at 1 hr intervals for a total period or 3 hours.
Blood samples were immediately added to tubes containing heparin (500 Units/μL) and centrifuged (11000×g). […] The fluid portions of the samples were placed in 1 mL Eppendorf tubes and stored until analysed.
These samples were transferred to 96 well plates and evaporated to dryness using a GeneVac centrifugal evaporator, then reconstituted in the wells with mobile phase (20 μL) Analysis of samples was performed by liquid chromatography (LCMS) using an Agilent 1100 series HPLC equipped with a well plate autosampler coupled with a PE Sciex Qstar Pulsar ESI-TOF mass spectrometer. Concentrations were determined from a standard curve of drug:internal standard peak area ratios. […]

As for `CC(=O)N[C@@H](Cc1ccccc1)C(=O)N[C@H]1CCCNC(=O)[C@H](CCCNC(=N)N)NC(=O)[C@H](Cc2c[nH]c3ccccc23)NC(=O)[C@@H](CC2CCCCC2)NC(=O)[C@@H]2CCCN2C1=O` [Compound 1, Ac-Phe-[Orn-Pro-dCha-Trp-Arg]], the “appearance of the C5a antagonist in the circulating plasma” value is no more than 15 min and the “persistence of significant plasma levels” value was “at least 4 hr”.
